Broadly, the Ki is a measure of affinity in units of concentration, obtained from inhibition or displacement.

Our source for the Ki values is patent US9422255B2, “S-imino-S-oxo-iminothiazine compounds as BACE inhibitors, compositions, and their use” (Merck Sharp & Dohme Corp., priority 2013, dated 2016).

Test [1] addresses purified human autoBACE-2 (Homo sapiens, UniProt Q9Y5Z0). Kind of test: BACE-2 Assay (BACE-HTRF assay). It counts as biochemical. To be noted: Ki calculated from IC50 using the Cheng-Prusoff equation; QSY7-EISEVNLDAEFC-Eu-amide substrate, pH 5.0. How it is done: Inhibitor IC50s at purified human autoBACE-2 are determined in a time-resolved endpoint proteolysis assay that measures hydrolysis of the QSY7-[…]-Eu-amide FRET peptide substrate (BACE-HTRF assay). […] DMSO is present at 5% final concentration in the assay. Following laser excitation of sample wells at 320 nm, the fluorescence signal at 620 nm is collected for 400 ms following a 50 μs delay on a RUBYstar HTRF plate reader (BMG Labtechnologies). Raw RFU data is normalized to maximum (1.0 nM BACE/DMSO) and minimum (no enzyme/DMSO) RFU values. […] The Ki values are calculated from the IC50 using the Cheng-Prusoff equation.

The target in test [2] is soluble human BACE1 catalytic domain (Homo sapiens (Human), UniProt P56817). Kind of test: BACE1 HTRF FRET Assay. The following applies: Ki calculated from IC50 using the Cheng-Prusoff equation; QSY7-APPswe-Eu substrate, pH 5.0; read-out: BACE 1 Ki. The test is classed as biochemical. The text has this: Na^+-Acetate pH 5.0; 1% Brij-35; Glycerol; Dimethyl Sulfoxide (DMSO); Recombinant human soluble BACE1 catalytic domain (>95% pure); APP Swedish mutant peptide substrate (QSY7-APP^swe-Eu): QSY7-EISEVNLDAEFC-Europium-amide.
A homogeneous time-resolved FRET assay can be used to determine IC50 values for inhibitors of the soluble human BACE1 catalytic domain. This assay monitors the increase of 620 nm fluorescence that resulted from BACE1 cleavage of an APPswedish APP^swe mutant peptide FRET substrate (QSY7-EISEVNLDAEFC-Europium-amide). This substrate contains an N-terminal QSY7 moiety that serves as a quencher of the C-terminal Europium fluorophore (620 nm Em). In the absence of enzyme activity, 620 nm fluorescence is low in the assay and increased linearly over 3 hours in the presence of uninhibited BACE1 enzyme Inhibition of BACE1 cleavage of the QSY7-APP^swe-Eu substrate by inhibitors is manifested as a suppression of 620 nm fluorescence.
Varying concentrations of inhibitors at 3× the final desired concentration in a volume of 10 ul are preincubated with purified human BACE1 catalytic domain (3 nM in 10 μl) for 30 minutes at 30° C. in reaction buffer containing 20 mM Na-Acetate pH 5.0, 10% glycerol, 0.1% Brij-35 and 7.5% DSMO. […]

purified human autoBACE-2, sequence (Q9Y5Z0 63-518 limits assumed): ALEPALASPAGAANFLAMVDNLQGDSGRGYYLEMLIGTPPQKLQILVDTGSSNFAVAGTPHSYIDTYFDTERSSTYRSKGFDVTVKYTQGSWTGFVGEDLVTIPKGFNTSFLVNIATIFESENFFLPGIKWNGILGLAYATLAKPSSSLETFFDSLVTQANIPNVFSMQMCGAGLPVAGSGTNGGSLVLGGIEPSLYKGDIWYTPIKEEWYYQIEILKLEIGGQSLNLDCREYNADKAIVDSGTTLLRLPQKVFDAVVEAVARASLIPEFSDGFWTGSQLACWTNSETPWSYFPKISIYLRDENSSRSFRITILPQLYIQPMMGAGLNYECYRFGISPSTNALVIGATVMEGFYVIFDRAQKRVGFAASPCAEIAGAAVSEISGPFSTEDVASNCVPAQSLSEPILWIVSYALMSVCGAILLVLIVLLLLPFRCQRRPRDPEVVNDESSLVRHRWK
soluble human BACE1 catalytic domain, sequence (P56817 75-416): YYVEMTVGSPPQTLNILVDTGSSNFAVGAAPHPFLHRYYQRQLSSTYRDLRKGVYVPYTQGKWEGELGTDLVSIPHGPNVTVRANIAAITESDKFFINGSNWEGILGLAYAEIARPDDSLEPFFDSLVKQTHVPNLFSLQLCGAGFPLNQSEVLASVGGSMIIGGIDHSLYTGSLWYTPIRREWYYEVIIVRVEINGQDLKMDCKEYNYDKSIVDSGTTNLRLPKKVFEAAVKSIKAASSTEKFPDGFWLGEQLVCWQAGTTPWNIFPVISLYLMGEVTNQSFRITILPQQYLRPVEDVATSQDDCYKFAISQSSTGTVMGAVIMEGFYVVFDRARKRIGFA

Consider `CN=S1(=O)C[C@@](C)(c2cc(NC(=O)c3ccc(Cl)cn3)ccc2F)NC(=N)[C@@]1(C)c1ccc(F)cc1` (some centres unmarked) [Example 10a], for which the Ki was 106 nM in test [1] and 290 nM in test [2].
